According to patent US10023590B2, “Substituted pyridine compounds having herbicidal activity” (BASF SE, priority 2014, dated 2018):
Like-named read-outs stand apart in the source and are kept apart here.

How the values were obtained:
Format in all cases: in vivo
[1] = tested on: Cirsium arvense; test: Greenhouse post-emergence herbicidal activity, CIRAR; details: for pest or weed control at 31 g/ha: 0.031 kg/ha
Outline: (§1)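 Post-emergence spray, water suspension/emulsion, on 3-15 cm plants in loamy sand with ~3.0% humus. 10-25° C. or 20-35° C. per species; 2-4 wk. Visual score 0-100, 100 = complete kill.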

[2] = tested on: Capsella bursa-pastoris; test: Greenhouse post-emergence herbicidal activity, CAPBP; details: scale 0 to 100
Description: (§2) The culture containers used were plastic flowerpots containing loamy sand with approximately 3.0% of humus as the substrate. The seeds of the test plants were sown separately for each species.
(§3) For the post-emergence treatment, the test plants were first grown to a height of 3 to 15 cm, depending on the plant habit, and only then treated with the active ingredients which had been suspended or emulsified in water. For this purpose, the test plants were either sown directly and grown in the same containers, or they were first grown separately as seedlings and transplanted into the test containers a few days prior to treatment.
(§4) Depending on the species, the plants were kept at 10-25° C. or 20-35° C., respectively.
(§5) The test period extended over 2 to 4 weeks. During this time, the plants were tended, and their response to the individual treatments was evaluated.
(§6) Evaluation was carried out using a scale from 0 to 100. 100 means no emergence of the plants, or complete destruction of at least the aerial moieties, and 0 means no damage, or normal course of growth. A good herbicidal activity is given at values of at least 70 and a very good herbicidal activity is given at values of at least 85.

[3] = tested on: Abutilon theophrasti; test: Greenhouse post-emergence herbicidal activity, ABUTH
Outline: as §1

[4] = tested on: Brachiaria decumbens; test: Greenhouse post-emergence herbicidal activity, BRADC; details: 0.125 kg/ha, scale 0 to 100
Description: as §2, §3, §4, §5, §6

[5] = tested on: Kochia scoparia; test: Greenhouse post-emergence herbicidal activity, KCHSC; details: scale 0 to 100
Description: as §2, §3, §4, §5, §6

[6] = tested on: Echinocloa crus-galli; test: Greenhouse post-emergence herbicidal activity, ECHCG; details: Echinochloa crus-galli
Outline: as §1

[7] = tested on: Amaranthus retroflexus; test: Greenhouse post-emergence herbicidal activity, AMARE; details: for pest or weed control at 31 g/ha: 0.031 kg/ha; for pest or weed control at 63 g/ha: 0.063 kg/ha; for pest or weed control at 125 g/ha: 0.125 kg/ha
Outline: as §1

[8] = tested on: Zea mays; test: Greenhouse post-emergence herbicidal activity on crop ZEAMX (corn, maize); parameters: key: 0 = no damage/normal growth, 100 = no emergence or complete destruction; details: ZEAMX (corn, crop), scale 0 to 100
Outline: as §1

[9] = tested on: Stellaria media; test: Greenhouse post-emergence herbicidal activity, STEME; details: scale 0 to 100
Description: as §2, §3, §4, §5, §6

[10] = tested on: Polygonum persicaria; test: Greenhouse post-emergence herbicidal activity, POLPE; details: 0.031 kg/ha, scale 0 to 100
Description: as §2, §3, §4, §5, §6

[11] = tested on: Setaria viridis; test: Greenhouse post-emergence herbicidal activity, SETVI; details: 2 kg/ha, scale 0 to 100
Description: as §2, §3, §4, §5, §6

[12] = tested on: Chenopodium album; test: Greenhouse post-emergence herbicidal activity, CHEAL; details: scale 0 to 100; for pest or weed control at 31 g/ha: 0.031 kg/ha; for pest or weed control at 63 g/ha: 0.063 kg/ha; for pest or weed control at 125 g/ha: 0.125 kg/ha
Outline: as §1

[13] = tested on: Brachiaria deflexa; test: Greenhouse post-emergence herbicidal activity, BRADE; details: 0.031 kg/ha, scale 0 to 100
Description: as §2, §3, §4, §5, §6

[14] = tested on: Eriochloa villosa; test: Greenhouse post-emergence herbicidal activity, ERBVI; details: scale 0 to 100
Description: as §2, §3, §4, §5, §6

[15] = tested on: Oryza sativa; test: Greenhouse post-emergence herbicidal activity on crop ORYSA (rice); details: ORYSA (rice, crop), scale 0 to 100
Outline: as §1

[16] = tested on: Commelina benghalensis; test: Greenhouse post-emergence herbicidal activity, COMBE; details: 0.125 kg/ha, scale 0 to 100
Description: as §2, §3, §4, §5, §6

[17] = tested on: Sesbania herbacea; test: Greenhouse post-emergence herbicidal activity, SEBEX; details: 0.125 kg/ha, scale 0 to 100
Description: as §2, §3, §4, §5, §6

[18] = tested on: Ipomoea hederacea; test: Greenhouse post-emergence herbicidal activity, IPOHE; details: 0.125 kg/ha, scale 0 to 100
Description: as §2, §3, §4, §5, §6

[19] = tested on: Polygonum aviculare; test: Greenhouse post-emergence herbicidal activity, POLAV; details: 0.25 kg/ha, scale 0 to 100
Description: as §2, §3, §4, §5, §6

[20] = tested on: Ambrosia artemisiifolia; test: Greenhouse post-emergence herbicidal activity, AMBEL; details: 0.25 kg/ha, scale 0 to 100
Description: as §2, §3, §4, §5, §6

[21] = tested on: Setaria faberi; test: Greenhouse post-emergence herbicidal activity, SETFA; details: scale 0 to 100
Description: as §2, §3, §4, §5, §6

[22] = tested on: Veronica arvensis; test: Greenhouse post-emergence herbicidal activity, VERAR; details: 0.031 kg/ha, scale 0 to 100
Description: as §2, §3, §4, §5, §6

[23] = tested on: Brachiaria plantaginea; test: Greenhouse post-emergence herbicidal activity, BRAPL; details: scale 0 to 100
Description: as §2, §3, §4, §5, §6

[24] = ABUTH, 2 kg/ha, scale 0 to 100, read-out: Herbicidal activity
[25] = ECHCG, 2 kg/ha, scale 0 to 100, read-out: Herbicidal activity
[26] = CIRAR, 0.063 kg/ha, scale 0 to 100, read-out: Herbicidal activity
[27] = AMARE, 2 kg/ha, scale 0 to 100, read-out: Herbicidal activity

SMILES	Herbicidal activity ([2]; 0.125 kg/ha)	Herbicidal activity ([5]; 0.063 kg/ha)	Herbicidal activity ([8]; 0.063 kg/ha)	Herbicidal activity [11]	pest or weed control at 2000 g/ha [3, 24] [%]	pest or weed control at 31 g/ha [12] [%]	pest or weed control at 2000 g/ha [6, 25] [%]	pest or weed control at 31 g/ha ([7]; AMARE, scale 0 to 100) [%]	pest or weed control at 63 g/ha ([7]; AMARE, scale 0 to 100) [%]	pest or weed control at 125 g/ha ([7]; AMARE, scale 0 to 100) [%]	Herbicidal activity ([8]; 0.031 kg/ha)	Herbicidal activity ([8]; 0.125 kg/ha)	Herbicidal activity ([14]; 0.063 kg/ha)	pest or weed control at 31 g/ha ([1]; CIRAR, scale 0 to 100) [%]	pest or weed control at 63 g/ha [1, 26] [%]	Herbicidal activity ([15]; 0.125 kg/ha)	pest or weed control at 63 g/ha [12] [%]	pest or weed control at 125 g/ha [12] [%]	pest or weed control at 2000 g/ha [7, 27] [%]	Herbicidal activity ([15]; 0.063 kg/ha)	other results
CN(c1c(Cl)ccc(C2=C(O)c3ncccc3C(C)(C)S2(=O)=O)c1Cl)S(C)(=O)=O [I-2, N-[2,6-dichloro-3-(8-hydroxy-5,5-dimethyl-6,6-dioxo-thiopyrano[4,3-b]pyridin-7-yl)phenyl]-N-methyl-methanesulfonamide]	100	98	5	–	–	–	–	–	–	–	–	–	–	–	–	–	–	–	–	–	pest or weed control at 63 g/ha ([1]; read-out: Herbicidal activity): 98%; pest or weed control at 2000 g/ha ([3]; read-out: Herbicidal activity): 100%; Herbicidal activity [4]: 100; Herbicidal activity ([5]; 0.031 kg/ha): 95; Herbicidal activity ([5]; 0.125 kg/ha): 100; pest or weed control at 2000 g/ha ([6]; read-out: Herbicidal activity): 100%; pest or weed control at 2000 g/ha ([7]; read-out: Herbicidal activity): 100%; Herbicidal activity ([9]; 0.031 kg/ha): 100; Herbicidal activity ([9]; 0.063 kg/ha): 100; Herbicidal activity [10]: 98
CCN(c1c(Cl)ccc(C2=C(O)c3ncccc3C(C)(C)S2(=O)=O)c1Cl)S(C)(=O)=O [I-9, N-[2,6-dichloro-3-(8-hydroxy-5,5-dimethyl-6,6-dioxo-thiopyrano[4,3-b]pyridin-7-yl)phenyl]-N-ethyl-methanesulfonamide]	–	100	10	100	98	98	100	98	98	98	5	50	98	–	–	–	–	–	–	–	pest or weed control at 125 g/ha ([1]; CIRAR, 0.125 kg/ha, scale 0 to 100): 100%; pest or weed control at 125 g/ha ([6]; ECHCG, 0.125 kg/ha, scale 0 to 100): 98%; Herbicidal activity [13]: 100
CC(C)N(c1c(Cl)ccc(C2=C(O)c3ncccc3C(C)(C)S2(=O)=O)c1Cl)S(C)(=O)=O [I-11, N-[2,6-dichloro-3-(8-hydroxy-5,5-dimethyl-6,6-dioxo-thiopyrano[4,3-b]pyridin-7-yl)phenyl]-N-isopropyl-methanesulfonamide]	100	–	–	100	–	98	100	–	–	–	0	–	–	90	95	20	98	100	100	–	Herbicidal activity ([2]; 0.031 kg/ha): 98; Herbicidal activity ([2]; 0.063 kg/ha): 100; Herbicidal activity [16]: 100
CN(C)S(=O)(=O)Oc1c(Cl)ccc(C2=C(O)c3ncccc3C(C)(C)S2(=O)=O)c1Cl [I-23]	–	–	0	–	–	85	–	–	70	–	0	15	–	75	80	0	95	98	–	0	Herbicidal activity ([15]; 0.031 kg/ha): 0; pest or weed control at 1000 g/ha ([3]; ABUTH, 1 kg/ha, scale 0 to 100): 80%; Herbicidal activity [17]: 98; pest or weed control at 1000 g/ha ([6]; ECHCG, 1 kg/ha, scale 0 to 100): 95%; pest or weed control at 1000 g/ha ([7]; AMARE, 1 kg/ha, scale 0 to 100): 100%; Herbicidal activity [18]: 95
CC1(C)c2cccnc2C(O)=C(c2ccc(Cl)c(N(C3CC3)S(C)(=O)=O)c2Cl)S1(=O)=O [I-25, N-cyclopropyl-N-[2,6-dichloro-3-(8-hydroxy-5,5-dimethyl-6,6-dioxo-thiopyrano[4,3-b]pyridin-7-yl)phenyl]methanesulfonamide]	95	–	–	–	–	–	–	95	98	98	5	20	–	95	–	–	95	–	–	35	Herbicidal activity ([15]; 0.25 kg/ha): 35; Herbicidal activity [19]: 100; Herbicidal activity [20]: 100; pest or weed control at 250 g/ha ([7]; AMARE, 0.25 kg/ha, scale 0 to 100): 98%; Herbicidal activity ([21]; 0.031 kg/ha): 95; Herbicidal activity ([21]; 0.063 kg/ha): 95; Herbicidal activity ([21]; 0.125 kg/ha): 95
Cc1c(C2=C(O)c3ncccc3CS2(=O)=O)ccc(Cl)c1N(C)S(C)(=O)=O [I-26, N-[6-chloro-3-(8-hydroxy-6,6-dioxo-5H-thiopyrano[4,3-b]pyridin-7-yl)-2-methyl-phenyl]-N-methyl-methanesulfonamide]	–	–	15	–	100	–	100	–	85	90	–	15	95	–	–	45	–	98	100	–	Herbicidal activity [22]: 90; Herbicidal activity ([23]; 0.031 kg/ha): 90; Herbicidal activity ([23]; 0.063 kg/ha): 90; Herbicidal activity ([14]; 0.031 kg/ha): 90; Herbicidal activity ([14]; 0.125 kg/ha): 95
